Measured values reported in patent publication US20060183921A1, “Pharmaceutically active compounds and methods of use” (priority 2001, published 2006).

Assays:
[1] = target: T1, human recombinant A1-adenosine receptors (Homo sapiens, UniProt P30542); test: Measurement of cAMP enhancement in CHO cells (allosteric enhancement, cAMP content by radioimmunoassay); assay type: cell-based; conditions: CHO:huA1 cells, forskolin 1 μM, rolipram 20 μM, CPA 0.01 nM, 6 min at 36° C., control 100%
T1 construct: expressed in transfected cells; host or cells: CHO (Chinese hamster ovary) cells, CHO:huA1, under G-418 selection
T1 sequence (P30542 1-326): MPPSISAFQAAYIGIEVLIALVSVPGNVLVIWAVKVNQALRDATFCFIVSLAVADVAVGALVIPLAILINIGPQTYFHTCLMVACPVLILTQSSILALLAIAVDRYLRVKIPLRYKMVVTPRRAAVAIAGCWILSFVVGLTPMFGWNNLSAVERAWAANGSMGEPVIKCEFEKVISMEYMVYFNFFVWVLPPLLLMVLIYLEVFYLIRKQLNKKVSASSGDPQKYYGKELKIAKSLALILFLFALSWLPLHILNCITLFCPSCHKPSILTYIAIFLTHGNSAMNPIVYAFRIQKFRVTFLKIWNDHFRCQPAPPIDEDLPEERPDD
Protocol: Chinese hamster ovary cells expressing human recombinant A1-adenosine receptors (CHO:huA1 cells) at a density of approximately 8000 fmol/mg protein were prepared as previously described (Kollias-Baker et al., (1997), J. Pharmacol. Exp. Ther. 281: 761-768) and aliquots of the cells at low passage numbers were frozen and stored in liquid nitrogen. When compounds were tested, an aliquot of CHO:huA1 cells were rapidly thawed after removal from liquid nitrogen, then grown in Ham's F12 culture medium with 10% fetal bovine serum and 0.5 mg/mL of antibiotic G-418 (Shryock, Ozeck, and Belardinelli (1998), Mol. Pharmacol. 53: 886-893). Cells were passaged thrice weekly. Aliquots of cells were placed into 12-well plates with culture medium, serum, and antibiotic for 48 hours, by which time the cells had grown to a confluent monolayer.
Allosteric enhancement was measured as the action of a test compound at different concentrations (0.01, 0.1, 1 and 10 μM) to reduce the cAMP content of CHO:huA1 cells. To initiate an experiment, growth medium was removed from the 12-well plates and cells were washed once with warm Hanks' buffered saline. The wash solution was then removed and replaced with fresh Hanks' solution containing forskolin (1 μM), rolipram (20 μM), N^6-cyclopentyladenosine (CPA, 0.01 nM), adenosine deaminase (2 U/mL), and the test compound. Forskolin was used to stimulate the activity of adenylyl cyclase, rolipram to inhibit cAMP phosphodiesterase, adenosine deaminase to degrade endogenous adenosine, and CPA to cause a small increase of the number of activated adenosine receptors. After 6 min of incubation at 36° C. in the presence of test compound, the incubation solution was removed and hydrochloric acid (final concentration 50 mM) was added to terminate drug action. The content of cAMP in acidified extracts of cells was determined by radioimmunoassay as previously described (Kollias-Baker et al., (1997), J. Pharmacol. Exp. Ther. 281: 761-768). Because the magnitude of the effects of allosteric enhancers on CHO:huA1 cells changed subtly with passage number and differed slightly among different aliquots of cells, the actions of the test compounds and the action of a reference compound (PD 81,723) were assessed in each experiment. The effect of each test compound on cAMP content is presented in the accompanying table as a percentage of the value of cAMP content in the absence of drug (control, 100%). Each value is a mean±standard error of 6 determinations in each of the number of experiments indicated in the “n” column of the table.

melting point [°C]	Change in cAMP Content from Control (Mean ± SEM) ([1]; 0.01 μM test compound) [%]	Change in cAMP Content from Control (Mean ± SEM) ([1]; 0.1 μM test compound) [%]	Change in cAMP Content from Control (Mean ± SEM) ([1]; 1 μM test compound) [%]	Change in cAMP Content from Control (Mean ± SEM) ([1]; 10 μM test compound) [%]	Compound
196 to 198					Cc1cccc2c1C(=O)c1c-2csc1N [Example 2, 1-Amino-7-methyl-2-thia-cyclopenta[a]inden-8-one]
157 to 159					Cc1ccc2c(c1)-c1csc(N)c1C2=O [Example 3, 1-Amino-5-methyl-2-thia-cyclopenta[a]inden-8-one]
183 to 185					Nc1scc2c1C(=O)c1c(Cl)cccc1-2 [Example 4, 1-Amino-7-chloro-2-thia-cyclopenta[a]inden-8-one]
201 to 202					Nc1scc2c1C(=O)c1ccc(Cl)cc1-2 [Example 5, 1-Amino-5-chloro-2-thia-cyclopenta[a]inden-8-one]
254 to 255					Nc1scc2c1C(=O)c1c-2ccc(Cl)c1Cl [Example 6, 1-Amino-6,7-dichloro-2-thia-cyclopenta[a]inden-8-one]
	−5 ± 4	−15 ± 2	4 ± 5	−16 ± 3	Nc1scc2c1C(=O)c1cc(Br)ccc1-2 [Example 21, 1-Amino-6-bromo-2-thia-cyclopenta[a]inden-8-one]
	4 ± 2	−1 ± 8	0 ± 7	−17 ± 2	Nc1scc2c1C(O)c1ccc(Cl)cc1-2 (stereo not shown) [Example 22, 1-Amino-5-chloro-8-hydroxy-2-thia-cyclopenta[a]indene]
	−7 ± 2	9 ± 9	−16 ± 3	−42 ± 1	CC(=O)Nc1scc2c1C(=O)c1ccc(Cl)cc1-2 [Example 23, 1-Acetylamino-5-chloro-2-thia-cyclopenta[a]inden-8-one]
	5 ± 3	5 ± 3	−1 ± 1	−23 ± 6	Nc1ccc2c(c1)C(=O)c1c-2csc1N [Example 24, 1,6-Diamino-2-thia-cyclopenta[a]inden-8-one]
	0 ± 5	−9 ± 8	−46 ± 2	−75 ± 3	Nc1scc2c1C(=O)c1ccc(Cl)c(Cl)c1-2 [Example 25, 1-Amino-4,5-dichloro-2-thia-cyclopenta[a]inden-8-one]
	−4 ± 1	−1 ± 7	15 ± 6	25 ± 7	Nc1sc2c3c1C(=O)c1ccc(Cl)cc1C3CN(Cc1ccccc1)C2 (stereo not shown) [Example 26, 5-Amino-2-benzyl-9-chloro-1,2,3,10b-tetrahydro-6H-benzo[h]thieno[2,3,4-de]isoquinolin-6-one]
	6 ± 3	8 ± 5	8 ± 9	0 ± 9	Nc1scc2c1C(=O)c1c(Cl)cccc1C21SCCCS1 [Example 27, 3-Amino-5-chloro-9-spiro(1,3-dithian-2-yl)-9H-naphtho[2,3-c]thiophene-4-one]
	4 ± 2	8 ± 3	−32 ± 2	−75 ± 1	Cc1sc(N)c(C(=O)c2cccc(C(F)(F)F)c2)c1C [PD 81,72, reference compound]
